{"source": "patent US20230000869A1", "about": "“NOVEL ALK2 INHIBITORS AND METHODS FOR INHIBITING BMP SIGNALING” (The Brigham and Women's Hospital, Inc., priority 2017, published 2023)", "molecular_target": "T1, Aldehyde Oxidase (AO) (Homo sapiens, UniProt Q06278)", "T1 construct": "tissue Frontage Laboratories (performed the study); host or cells: human liver cytosol (HLC), 2 mg/ml", "T1 sequence (Q06278 1-1338)": "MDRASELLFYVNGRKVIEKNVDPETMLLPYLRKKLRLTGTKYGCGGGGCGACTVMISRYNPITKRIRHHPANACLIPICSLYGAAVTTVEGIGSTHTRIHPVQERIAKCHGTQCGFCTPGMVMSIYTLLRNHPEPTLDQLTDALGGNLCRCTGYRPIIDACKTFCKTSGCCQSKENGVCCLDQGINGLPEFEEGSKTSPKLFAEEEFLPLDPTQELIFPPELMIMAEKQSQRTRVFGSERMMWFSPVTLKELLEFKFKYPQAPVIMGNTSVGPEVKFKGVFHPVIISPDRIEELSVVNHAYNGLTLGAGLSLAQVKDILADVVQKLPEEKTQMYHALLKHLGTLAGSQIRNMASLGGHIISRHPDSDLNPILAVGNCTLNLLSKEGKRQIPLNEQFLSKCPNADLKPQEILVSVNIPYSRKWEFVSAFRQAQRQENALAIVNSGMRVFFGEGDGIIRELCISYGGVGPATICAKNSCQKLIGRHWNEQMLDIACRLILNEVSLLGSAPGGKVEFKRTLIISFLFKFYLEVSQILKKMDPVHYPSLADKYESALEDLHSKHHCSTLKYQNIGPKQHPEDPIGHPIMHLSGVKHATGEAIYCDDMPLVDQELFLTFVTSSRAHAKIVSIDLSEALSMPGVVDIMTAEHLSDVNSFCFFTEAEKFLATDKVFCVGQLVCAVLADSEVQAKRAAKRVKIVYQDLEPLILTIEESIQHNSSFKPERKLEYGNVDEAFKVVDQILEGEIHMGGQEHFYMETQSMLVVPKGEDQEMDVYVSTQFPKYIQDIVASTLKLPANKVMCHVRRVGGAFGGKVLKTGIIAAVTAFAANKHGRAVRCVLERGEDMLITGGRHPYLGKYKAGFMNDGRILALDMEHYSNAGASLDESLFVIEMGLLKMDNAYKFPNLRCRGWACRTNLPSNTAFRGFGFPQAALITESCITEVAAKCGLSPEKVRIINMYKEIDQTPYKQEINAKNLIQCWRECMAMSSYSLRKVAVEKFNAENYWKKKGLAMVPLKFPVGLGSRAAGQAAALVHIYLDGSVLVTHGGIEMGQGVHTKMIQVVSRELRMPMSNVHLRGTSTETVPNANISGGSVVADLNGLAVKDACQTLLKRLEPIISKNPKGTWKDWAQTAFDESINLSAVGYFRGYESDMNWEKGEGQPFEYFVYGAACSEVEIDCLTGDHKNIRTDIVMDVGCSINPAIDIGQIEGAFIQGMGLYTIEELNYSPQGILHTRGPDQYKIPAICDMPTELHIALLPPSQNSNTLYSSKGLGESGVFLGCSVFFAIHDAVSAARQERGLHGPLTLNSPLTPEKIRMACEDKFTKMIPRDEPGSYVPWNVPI", "assay": "Aldehyde oxidase (AO) oxidation study, metabolic stability in human liver cytosol", "type": "in vitro ADME", "conditions": "human liver cytosol 2 mg/ml, 1 μM substrate, 37° C.", "experimental": "Experimental Procedure for Aldehyde Oxidase (AO) Oxidation Study (Frontage Laboratories (700 Pennsylvania Dr. Exton, Pa. 19341)\nDetermination of the of metabolic stability in human liver cytosol (HLC) and the identification of corresponding metabolites was done by incubating substrates (1 μM final concentration for metabolic stability or 10 μM final concentration for metabolite ID) with HLC (2 mg/ml, final concentration) in 100 mM potassium phosphate at pH 7.4. The reaction was initiated by adding HLC without preincubation. The mixture was then incubated at 37° C. for 1 h and samples were taken at 0, 30 and 60 min for analysis. The reaction was terminated by adding acetonitrile (ACN) (3×) followed by vortexing for 1 min then centrifuged. For the metabolic stability study, aliquotes of the supernatants were transferred to clean tubes and directly used for LC/MS/MS analysis. For the identification of metabolites, aliquots of supernatants were transferred to clean tubes and dried under a stream of N2. The residue was reconstituted in 30/70 (v/v) acetonitrile/water solution and injected onto LC/UV/MS system.\nThe instrument and method for the metabolic stability are as following: LC/MS/MS system: Agilent 1100 HPLC interfaced to Sciex API4000 mass spectrometer (ESI); HPLC column: ACE 3 C18-PFP, 50×2.1 mm, 5 μm. […]", "data": [{"smiles": "c1ccc2c(-c3cnn4cc(-c5ccc(N6CCNCC6)cc5)cnc34)ccnc2c1", "note": "[TRND00262637-13]", "values": [{"measurement": "30 minutes (%)", "setting": "pH 7.4, sample at 30 min", "value": 0.06, "unit": "%"}, {"measurement": "60 minutes (%)", "setting": "pH 7.4, sample at 60 min", "value": 0.02, "unit": "%"}]}]}
